Data reported in ChEMBL document CHEMBL1201862, “PubChem BioAssay data set” (2004).
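Method: 48-hour compound exposure of cells in 96-well plates, five concentrations, linear interpolation of endpoints. GI50 is the concentration that inhibits growth by half.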 The source made the active and inactive calls. No stated cut-off is given here; in the data, active = GI50 up to about 1.1 µM and inactive = higher.

Columns and labels:
Test in all cases: inhibition of tumour cell growth, NCI panel, 48 h
786-0 = tested on: 786-0
A549 = tested on: A549
ACHN = tested on: ACHN
EKVX = tested on: EKVX
HCC 2998 = tested on: HCC 2998
HT-29 = tested on: HT-29
IGROV-1 = tested on: IGROV-1
OVCAR-3 = tested on: OVCAR-3
OVCAR-4 = tested on: OVCAR-4
OVCAR-8 = tested on: OVCAR-8
RPMI-8226 = tested on: RPMI-8226
SF-268 = tested on: SF-268
SF-539 = tested on: SF-539
SK-MEL-28 = tested on: SK-MEL-28
SK-MEL-2 = tested on: SK-MEL-2
SN12C = tested on: SN12C
SR = tested on: SR
COLO 205 = tested on: COLO 205
U-251 = tested on: U-251

| SMILES | GI50 (786-0) | GI50 (A549) | GI50 (ACHN) | GI50 (EKVX) | GI50 (HCC 2998) | GI50 (HT-29) | GI50 (IGROV-1) | GI50 (OVCAR-3) | GI50 (OVCAR-4) | GI50 (OVCAR-8) | GI50 (RPMI-8226) | GI50 (SF-268) | GI50 (SF-539) | GI50 (SK-MEL-28) | GI50 (SK-MEL-2) | GI50 (SN12C) | GI50 (SR) | GI50 (COLO 205) | GI50 (U-251) |
| --- | --- | --- | --- | --- | --- | --- | --- | --- | --- | --- | --- | --- | --- | --- | --- | --- | --- | --- | --- |
| C/C(CCn1[nH]c(=O)ccc1=O)=N\O | > 100 µM (inactive) | > 100 µM (inactive) | > 100 µM (inactive) | > 100 µM (inactive) | > 100 µM (inactive) | > 100 µM (inactive) | > 100 µM (inactive) | > 100 µM (inactive) | > 100 µM (inactive) | > 100 µM (inactive) | > 100 µM (inactive) | > 100 µM (inactive) | > 100 µM (inactive) | > 100 µM (inactive) | > 100 µM (inactive) | > 100 µM (inactive) | > 100 µM (inactive) | – | – |
| CN1CN(C2OC(CO)C(O)C2O)c2nc(N)[nH]c(=O)c21 (stereo not drawn) | > 100 µM (inactive) | > 100 µM (inactive) | > 100 µM (inactive) | > 100 µM (inactive) | > 100 µM (inactive) | > 100 µM (inactive) | > 100 µM (inactive) | > 100 µM (inactive) | > 100 µM (inactive) | > 100 µM (inactive) | > 100 µM (inactive) | > 100 µM (inactive) | > 100 µM (inactive) | – | > 100 µM (inactive) | > 100 µM (inactive) | > 100 µM (inactive) | > 100 µM (inactive) | > 100 µM (inactive) |
| COC(=O)c1cc(=O)nc2cc3cccccc3n12 | > 100 µM (inactive) | > 100 µM (inactive) | > 100 µM (inactive) | > 100 µM (inactive) | > 100 µM (inactive) | > 100 µM (inactive) | > 100 µM (inactive) | > 100 µM (inactive) | – | > 100 µM (inactive) | > 100 µM (inactive) | – | > 100 µM (inactive) | > 100 µM (inactive) | – | > 100 µM (inactive) | > 100 µM (inactive) | > 100 µM (inactive) | > 100 µM (inactive) |
| N/N=c1/nc2n(c3ncccc13)C=CNN2 | > 100 µM (inactive) | > 100 µM (inactive) | > 100 µM (inactive) | > 100 µM (inactive) | > 100 µM (inactive) | > 100 µM (inactive) | > 100 µM (inactive) | > 100 µM (inactive) | – | > 100 µM (inactive) | > 100 µM (inactive) | > 100 µM (inactive) | > 100 µM (inactive) | > 100 µM (inactive) | > 100 µM (inactive) | > 100 µM (inactive) | > 100 µM (inactive) | > 100 µM (inactive) | > 100 µM (inactive) |
| Cc1cc(C)nc(NS(=O)(=O)c2ccc(Nc3c4ccccc4nc4c(C(=O)NCCN(C)C)ccc(Cl)c34)cc2)n1 | 3.73 µM (inactive) | 0.942 µM (active) | 2.02 µM (inactive) | 4.4 µM (inactive) | 13.8 µM (inactive) | 0.659 µM (active) | 2.06 µM (inactive) | 7.64 µM (inactive) | 1.1 µM (active) | 0.681 µM (active) | – | 1.51 µM (inactive) | 2.36 µM (inactive) | 5.4 µM (inactive) | 3.61 µM (inactive) | 1.45 µM (inactive) | 0.259 µM (active) | 1.06 µM (active) | 1.66 µM (inactive) |
| COCC1C(=O)c2cc3c(cc2C12C=CC1(C=C2)OCCO1)OCO3 (stereo not drawn) | 2.13 µM (inactive) | 15.4 µM (inactive) | 12.7 µM (inactive) | 16.6 µM (inactive) | – | 3.94 µM (inactive) | 15.4 µM (inactive) | 13.7 µM (inactive) | 14.2 µM (inactive) | 3.58 µM (inactive) | 1.43 µM (inactive) | 3.86 µM (inactive) | 15.6 µM (inactive) | 14.5 µM (inactive) | 11.7 µM (inactive) | 10.9 µM (inactive) | 1.82 µM (inactive) | 10.3 µM (inactive) | 3.67 µM (inactive) |
| CCc1[nH]c(=O)c2oc3cc4ccccc4cc3c2c1C(=O)O | > 10 µM (inactive) | > 10 µM (inactive) | > 10 µM (inactive) | > 10 µM (inactive) | > 10 µM (inactive) | > 10 µM (inactive) | 0.001 µM (active) | > 10 µM (inactive) | > 10 µM (inactive) | > 10 µM (inactive) | – | > 10 µM (inactive) | > 10 µM (inactive) | – | > 10 µM (inactive) | > 10 µM (inactive) | > 10 µM (inactive) | – | – |
| N#CC1CCCCOCCOCCOCCOCCOCCCCCC1=O (stereo not drawn) | > 100 µM (inactive) | > 100 µM (inactive) | > 100 µM (inactive) | > 100 µM (inactive) | > 100 µM (inactive) | > 100 µM (inactive) | > 100 µM (inactive) | > 100 µM (inactive) | > 100 µM (inactive) | > 100 µM (inactive) | > 100 µM (inactive) | > 100 µM (inactive) | – | > 100 µM (inactive) | > 100 µM (inactive) | > 100 µM (inactive) | > 100 µM (inactive) | > 100 µM (inactive) | > 100 µM (inactive) |
